Assays:
[1] = equal amounts of chelated copper mixed with water
[2] = dry powder rubbed on the surface of skin

**Q.** For `O=C(O)c1cccnc1.[Cu]` [copper nicotinic acid], which “time to change to the oxidized blue color” value [1] is on record?
**A.** a few minutes

**Q.** What about the “copper content by EDS, dry powder form” value (dry powder) of the same compound?
**A.** 22.90%

**Q.** And the “copper content by EDS after sample is wetted” value (wet sample)?
**A.** 21.7%

**Q.** What about the “change of EDS spectra after wetting” value (wet versus dry sample) of the same compound?
**A.** did not change significantly

**Q.** What about the “disappearance from the surface of skin when rubbed, dry powder” value [2] of the same compound?
**A.** disappeared from the surface of the skin

Source: US10258980B2, “Pure chelation process” (C LAB PHARMA INTERNATIONAL, S.A., priority 2014, dated 2019)
